Test results taken from ChEMBL document CHEMBL5584358, “Fungal Coculture of Herpotrichia sp. and Trametes versicolor Induces Production of Diverse Metabolites with Anti-Parkinson's Neuroprotective Activity” (J Nat Prod, 2024).
The source made the active and inactive calls. The calls are words filed in the database; no cut-off is given here.

Tests used:
[1] = tested on: PC-12; assay: Neuroprotective activity against MPP+-induced rat PC12 cell death assessed as downregulation of F8 gene expression at 1 to 10 uM preincubated for 1 hr followed by MPP+ addition and measured after 24 hrs by RNA sequencing analysis relative to control; format: functional; settings: dose 1-10 µM; time 25 hrs
[2] = tested on: PC-12; assay: Neuroprotective activity against MPP+-induced rat PC12 cell death assessed as downregulation of Ren gene expression at 1 to 10 uM preincubated for 1 hr followed by MPP+ addition and measured after 24 hrs by RNA sequencing analysis relative to control; format: functional; settings: dose 1-10 µM; time 25 hrs
[3] = tested on: PC-12; assay: Neuroprotective activity against MPP+-induced rat PC12 cell death assessed as downregulation of Cdk6 gene expression at 1 to 10 uM preincubated for 1 hr followed by MPP+ addition and measured after 24 hrs by RNA sequencing analysis relative to control; format: functional; settings: dose 1-10 µM; time 25 hrs
[4] = tested on: PC-12; assay: Neuroprotective activity against MPP+-induced rat PC12 cell death assessed as upregulation of Dars2 gene expression at 1 to 10 uM preincubated for 1 hr followed by MPP+ addition and measured after 24 hrs by RNA sequencing analysis relative to control; format: functional; settings: dose 1-10 µM; time 25 hrs
[5] = tested on: PC-12; assay: Neuroprotective activity against MPP+-induced rat PC12 cell death assessed as upregulation of Cryab gene expression at 1 to 10 uM preincubated for 1 hr followed by MPP+ addition and measured after 24 hrs by RNA sequencing analysis relative to control; format: functional; settings: dose 1-10 µM; time 25 hrs
[6] = tested on: PC-12; assay: Neuroprotective activity against MPP+-induced rat PC12 cell death assessed as downregulation of Cflar gene expression at 1 to 10 uM preincubated for 1 hr followed by MPP+ addition and measured after 24 hrs by RNA sequencing analysis relative to control; format: functional; settings: dose 1-10 µM; time 25 hrs
[7] = tested on: PC-12; assay: Neuroprotective activity against MPP+-induced rat PC12 cell death assessed as downregulation of IL33 gene expression at 1 to 10 uM preincubated for 1 hr followed by MPP+ addition and measured after 24 hrs by RNA sequencing analysis relative to control; format: functional; settings: dose 1-10 µM; time 25 hrs
[8] = tested on: PC-12; assay: Neuroprotective activity against MPP+-induced rat PC12 cell death assessed as increase in cell viability at […] preincubated for 1 hr followed by MPP+ addition and measured after 24 hrs by CCK-8 assay; format: functional, cell-based; settings: time 25.0 hrs
[9] = tested on: PC-12; assay: Neuroprotective activity against MPP+-induced rat PC12 cell death assessed as downregulation of Dmpk gene expression at 1 to 10 uM preincubated for 1 hr followed by MPP+ addition and measured after 24 hrs by RNA sequencing analysis relative to control; format: functional; settings: dose 1-10 µM; time 25 hrs
[10] = tested on: PC-12; assay: Neuroprotective activity against MPP+-induced rat PC12 cell death assessed as downregulation of Cntf gene expression at 1 to 10 uM preincubated for 1 hr followed by MPP+ addition and measured after 24 hrs by RNA sequencing analysis relative to control; format: functional; settings: dose 1-10 µM; time 25 hrs
[11] = tested on: PC-12; assay: Neuroprotective activity against MPP+-induced rat PC12 cell death assessed as upregulation of Rora gene expression at 1 to 10 uM preincubated for 1 hr followed by MPP+ addition and measured after 24 hrs by RNA sequencing analysis relative to control; format: functional; settings: dose 1-10 µM; time 25 hrs
[12] = tested on: PC-12; assay: Neuroprotective activity against MPP+-induced rat PC12 cell death assessed as downregulation of Bdnf gene expression at 1 to 10 uM preincubated for 1 hr followed by MPP+ addition and measured after 24 hrs by RNA sequencing analysis relative to control; format: functional; settings: dose 1-10 µM; time 25 hrs
[13] = tested on: PC-12; assay: Neuroprotective activity against MPP+-induced rat PC12 cell death assessed as downregulation of Ifitm3 gene expression at 1 to 10 uM preincubated for 1 hr followed by MPP+ addition and measured after 24 hrs by RNA sequencing analysis relative to control; format: functional; settings: dose 1-10 µM; time 25 hrs
[14] = tested on: PC-12; assay: Neuroprotective activity against MPP+-induced rat PC12 cell death assessed as upregulation of Cdh1 gene expression at 1 to 10 uM preincubated for 1 hr followed by MPP+ addition and measured after 24 hrs by RNA sequencing analysis relative to control; format: functional; settings: dose 1-10 µM; time 25 hrs
[15] = tested on: PC-12; assay: Neuroprotective activity against MPP+-induced rat PC12 cell death assessed as downregulation of Tnfrsf10b gene expression at 1 to 10 uM preincubated for 1 hr followed by MPP+ addition and measured after 24 hrs by RNA sequencing analysis relative to control; format: functional; settings: dose 1-10 µM; time 25 hrs
[16] = tested on: PC-12; assay: Neuroprotective activity against MPP+-induced rat PC12 cell death assessed as upregulation of Mmp2 gene expression at 1 to 10 uM preincubated for 1 hr followed by MPP+ addition and measured after 24 hrs by RNA sequencing analysis relative to control; format: functional; settings: dose 1-10 µM; time 25 hrs
[17] = tested on: PC-12; assay: Neuroprotective activity against MPP+-induced rat PC12 cell death assessed as upregulation of Ppial4d gene expression at 1 to 10 uM preincubated for 1 hr followed by MPP+ addition and measured after 24 hrs by RNA sequencing analysis relative to control; format: functional; settings: dose 1-10 µM; time 25 hrs
[18] = tested on: PC-12; assay: Neuroprotective activity against MPP+-induced rat PC12 cell death assessed as downregulation of Nr3c2 gene expression at 1 to 10 uM preincubated for 1 hr followed by MPP+ addition and measured after 24 hrs by RNA sequencing analysis relative to control; format: functional; settings: dose 1-10 µM; time 25 hrs
[19] = tested on: PC-12; assay: Neuroprotective activity against MPP+-induced rat PC12 cell death assessed as downregulation of Ikbkg gene expression at 1 to 10 uM preincubated for 1 hr followed by MPP+ addition and measured after 24 hrs by RNA sequencing analysis relative to control; format: functional; settings: dose 1-10 µM; time 25 hrs
[20] = tested on: PC-12; assay: Neuroprotective activity against MPP+-induced rat PC12 cell death assessed as upregulation of Insr gene expression at 1 to 10 uM preincubated for 1 hr followed by MPP+ addition and measured after 24 hrs by RNA sequencing analysis relative to control; format: functional; settings: dose 1-10 µM; time 25 hrs
[21] = tested on: PC-12; assay: Neuroprotective activity against MPP+-induced rat PC12 cell death assessed as upregulation of Faslg gene expression at 1 to 10 uM preincubated for 1 hr followed by MPP+ addition and measured after 24 hrs by RNA sequencing analysis relative to control; format: functional; settings: dose 1-10 µM; time 25 hrs
[22] = tested on: PC-12; assay: Neuroprotective activity against MPP+-induced rat PC12 cell death assessed as downregulation of Cyp2b1 gene expression at 1 to 10 uM preincubated for 1 hr followed by MPP+ addition and measured after 24 hrs by RNA sequencing analysis relative to control; format: functional; settings: dose 1-10 µM; time 25 hrs
[23] = tested on: PC-12; assay: Neuroprotective activity against MPP+-induced rat PC12 cell death assessed as downregulation of Vnn1 gene expression at 1 to 10 uM preincubated for 1 hr followed by MPP+ addition and measured after 24 hrs by RNA sequencing analysis relative to control; format: functional; settings: dose 1-10 µM; time 25 hrs
[24] = tested on: PC-12; assay: Neuroprotective activity against MPP+-induced rat PC12 cell death assessed as downregulation of Tnfaip8L2 gene expression at 1 to 10 uM preincubated for 1 hr followed by MPP+ addition and measured after 24 hrs by RNA sequencing analysis relative to control; format: functional; settings: dose 1-10 µM; time 25 hrs
[25] = tested on: PC-12; assay: Neuroprotective activity against MPP+-induced rat PC12 cell death assessed as upregulation of Lck gene expression at 1 to 10 uM preincubated for 1 hr followed by MPP+ addition and measured after 24 hrs by RNA sequencing analysis relative to control; format: functional; settings: dose 1-10 µM; time 25 hrs
[26] = tested on: PC-12; assay: Neuroprotective activity against MPP+-induced rat PC12 cell death assessed as upregulation of Bach2 gene expression at 1 to 10 uM preincubated for 1 hr followed by MPP+ addition and measured after 24 hrs by RNA sequencing analysis relative to control; format: functional; settings: dose 1-10 µM; time 25 hrs
[27] = tested on: PC-12; assay: Neuroprotective activity against MPP+-induced rat PC12 cell death assessed as downregulation of Unc13d gene expression at 1 to 10 uM preincubated for 1 hr followed by MPP+ addition and measured after 24 hrs by RNA sequencing analysis relative to control; format: functional; settings: dose 1-10 µM; time 25 hrs

Q: Which results are given for `C=C1CC[C@H]2C(C)(C)[C@@H](O)C[C@@H](O)[C@]2(C)[C@H]1CO`?
A: log2FC [1]: >0.4; log2FC [2]: >0.4; log2FC [3]: >0.4; log2FC [4]: >0.4; log2FC [5]: >0.4; log2FC [6]: >0.4; log2FC [7]: >0.4; Activity [8]: Active; log2FC [9]: >0.4; log2FC [10]: >0.4; log2FC [11]: >0.4; log2FC [12]: >0.4; log2FC [13]: >0.4; log2FC [14]: >0.4; log2FC [15]: >0.4; log2FC [16]: >0.4; log2FC [17]: >0.4; log2FC [18]: >0.4; log2FC [19]: >0.4; log2FC [20]: >0.4; log2FC [21]: >0.4; log2FC [22]: >0.4; log2FC [23]: >0.4; log2FC [24]: >0.4; log2FC [25]: >0.4; log2FC [26]: >0.4; log2FC [27]: >0.4
